Experimental data from patent US20240400606A1, “SMALL MOLECULE ACTIVATORS OF THE IMMUNE SYSTEM” (THE BOARD OF TRUSTEES OF THE UNIVERSITY OF ILLINOIS, priority 2021, published 2024).

Tests used:
T47D cells = test: Alamar blue cellular cytotoxicity, T47D; format: cell-based; conditions: 72 hours
Method: (§1) Alamar Blue Fluorescence for Cellular Activity (IC50). Cells were seeded per well in a 96-well plate (5000 for MCF-7, 4000 for T47D, 7000 for mouse embryonic fibroblasts) and allowed to adhere before DMSO solutions of compounds were added to each well. Final concentration of DMSO in each well is 1%, final volume: 100 μL. At the end of 72 hours, Alamar Blue solution was added (10 μL of 1 mg resazurin per 10 mL PBS). After 2-4 hours incubation, fluorescence (λexcit.=555 nm, λemission.=585 nm) was measured. The fluorescence of each well was read with a SpectraMax M3 plate reader (Molecular Devices). Percent dead was determined by comparison to a 100% dead control: 100 μM Raptinal treated cells.

MCF-7 cells = test: Alamar blue cellular cytotoxicity, MCF-7; format: cell-based; conditions: MCF-7, 72 hours
Method: as §1
Whole cell cytotoxicity-MCF-7. Cell cytotoxicity was assessed to ensure compound concentrations used the whole cell assays would not kill the cells. Alamar blue cell cytotoxicity assay: 5000 cells were seeded per well in a 96-well plate and allowed to adhere before DMSO solutions of compounds were added to each well. Final concentration of DMSO in each well is 1%, with a final volume of 100 μl. […] After 2 to 4 hours of incubation, fluorescence (λexcitation=555 nm, λemission=585 nm) was measured. Percent dead was determined by comparison to a 100% dead control: 100 μM Raptinal-treated cells (FIG. 6).

SULT2B1b = SULT2B1b (Homo sapiens (Human), UniProt O00204); test: Coupled chromogenic SULT2B1b inhibition assay; format: biochemical; conditions: for IC50: coupled chromogenic in vitro assay, optimized conditions, mean±s.e.m., n=3
Method: Optimized Coupled Chromogenic SULT2B1b Activity Assay. For 96-well Format: Working concentrations of IMPAD1 (0.1 mg/mL in 1× activity assay buffer), PAPS (1 mM in 1× activity assay buffer), and DHEA (2.5 mM in DMSO) were prepared. Two technical replicates were assayed for each sample. Reaction mixes were prepared by mixing 10 μL PAPS stock solution, 10 μL IMPAD1 stock solution, 4 μL 2.5 mM DHEA or DMSO, and 16 μL activity assay buffer to make […] reaction mix. Amount of reaction mix was scaled accordingly to number of samples assayed. 25 μL of reaction mix was dispensed to each well. SULT2B1b was diluted to 1.5 μg/μL in protein storage buffer then down to 0.8 μg/μL in 1X activity assay buffer. 25 μL of 0.8 μg/μL SULT2B1b was added to each well. The reaction was incubated at 37° C. for 45 minutes, then quenched by addition of 30 μL of malachite green solution A, followed by addition of 30 μL of malachite green solution B. The plate was left at room temperature for 20 minutes for color stabilization, then absorbance was read at 620 nm. IMPAD1 activity control was 10 μL of 0.1 mg/mL IMPAD1 mixed with 40 μL activity assay buffer. 25 μL of the IMPAD1 dilution was added to 25 μL of 0.1 mM PAP.
Coupled Chromogenic SULT2B1b Inhibition Assay. For 96-well Format: Working stock solutions of IMPAD1 (0.1 mg/mL in 1× activity assay buffer), PAPS (1 mM in 1X activity assay buffer), compound of interest (5 mM in DMSO) and DHEA (5 mM in DMSO) were prepared. Two technical replicates were assayed for each sample. […] The reaction was incubated at 37° C. for 45 minutes, then quenched by addition of 30 μL of malachite green solution A, followed by addition of 30 μL of malachite green solution B. The plate was left at room temperature for 20 minutes for color stabilization, then absorbance was read at 620 nm. […]
Percent inhibition was calculated as: 100−[100×[(Phosphate produced per wellaverage,compound of interest−Phosphate produced per wellaverage, DMSO)/(Phosphate produced per wellaverage, DHEA−Phosphate produced per wellaverage, DMSO)]]. […]

Chain of SULT2B1b (O00204 whole entry): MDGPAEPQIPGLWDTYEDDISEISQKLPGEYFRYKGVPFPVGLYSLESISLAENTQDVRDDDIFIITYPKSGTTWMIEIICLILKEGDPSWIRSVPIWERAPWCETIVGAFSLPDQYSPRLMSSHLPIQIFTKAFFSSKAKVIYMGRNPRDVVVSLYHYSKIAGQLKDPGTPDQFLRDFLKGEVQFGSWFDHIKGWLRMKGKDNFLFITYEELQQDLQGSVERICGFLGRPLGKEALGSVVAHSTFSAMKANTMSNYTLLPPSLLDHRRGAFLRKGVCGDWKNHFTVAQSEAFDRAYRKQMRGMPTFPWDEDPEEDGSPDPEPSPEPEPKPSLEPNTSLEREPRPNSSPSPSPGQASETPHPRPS

Compound	suitable sub-lethal treatment concentration (T47D cells) [µM]	suitable sub-lethal treatment concentration (MCF-7 cells) [µM]	IC50 (SULT2B1b) [µM]	percent inhibition (SULT2B1b; initial medium throughput screen) [%]
C[C@]12CCC(=O)N(Cc3ccc(Cl)cc3)C1=CC[C@@H]1[C@@H]2C(=O)C[C@]2(C)C(=O)CC[C@@H]12 [Compound 1, (4aR,4bS,6aS,9aS,9bS)-1-(4-chlorobenzyl)-4a,6a-dimethyl-3,4,4a,6,6a,8,9,9a,9b,10-decahydro-1H-indeno[5,4-f]quinoline-2,5,7(4bH)-trione]	6.25	6.25	34 ± 4	48
C[C@]12CC[C@H](O)CC1=CC[C@@H]1[C@@H]2CC[C@]2(C)C(n3cnc4ccccc43)=CC[C@@H]12 [Compound 2, Galeterone, reference compound]	–	–	41 ± 7	–
C[C@]12CCC(=O)N(Cc3ccc(Br)cc3)C1=CC[C@@H]1[C@@H]2C(=O)C[C@]2(C)C(=O)CC[C@@H]12 [Compound 3, (4aR,4bS,6aS,9aS,9bS)-1-(4-bromobenzyl)-4a,6a-dimethyl-3,4,4a,6,6a,8,9,9a,9b,10-decahydro-1H-indeno[5,4-f]quinoline-2,5,7(4bH)-trione]	6.25	6.25	–	–
